Source: patent publication US20240425491A1, “HETEROARYL COMPOUNDS USEFUL IN THE TREATMENT OF COGNITIVE DISORDERS” (University College Cardiff Consultants Limited, priority 2021, published 2024)
pKi: −log10 of the molar value.

Experiments:
[1] = target: T1, human α5β3γ2 GABAARs in mouse L(tk−) cells (Homo sapiens, UniProt P18507+P31644); test: In vitro electrophysiological recording assay (α5-GABAAR relative efficacy), QPatch; type: cell-based; conditions: GABA EC10-20
T1 construct: expressed in transfected cells; host or cells: mouse L(tk−) cells, dexamethasone-inducible vector pMSGneo
T1 sequence (P31644 32-462): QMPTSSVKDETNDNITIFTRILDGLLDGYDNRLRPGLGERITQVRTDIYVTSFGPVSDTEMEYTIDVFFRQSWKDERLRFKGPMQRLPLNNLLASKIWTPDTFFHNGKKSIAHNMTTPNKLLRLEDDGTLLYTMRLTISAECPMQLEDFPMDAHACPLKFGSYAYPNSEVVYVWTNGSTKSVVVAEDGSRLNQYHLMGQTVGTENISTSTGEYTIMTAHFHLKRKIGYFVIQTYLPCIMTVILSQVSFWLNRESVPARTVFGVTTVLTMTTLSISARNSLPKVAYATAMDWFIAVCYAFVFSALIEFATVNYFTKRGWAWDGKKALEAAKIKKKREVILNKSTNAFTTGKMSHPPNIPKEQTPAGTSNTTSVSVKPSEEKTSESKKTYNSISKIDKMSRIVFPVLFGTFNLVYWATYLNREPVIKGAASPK
T1 sequence (P28472 26-473 partner): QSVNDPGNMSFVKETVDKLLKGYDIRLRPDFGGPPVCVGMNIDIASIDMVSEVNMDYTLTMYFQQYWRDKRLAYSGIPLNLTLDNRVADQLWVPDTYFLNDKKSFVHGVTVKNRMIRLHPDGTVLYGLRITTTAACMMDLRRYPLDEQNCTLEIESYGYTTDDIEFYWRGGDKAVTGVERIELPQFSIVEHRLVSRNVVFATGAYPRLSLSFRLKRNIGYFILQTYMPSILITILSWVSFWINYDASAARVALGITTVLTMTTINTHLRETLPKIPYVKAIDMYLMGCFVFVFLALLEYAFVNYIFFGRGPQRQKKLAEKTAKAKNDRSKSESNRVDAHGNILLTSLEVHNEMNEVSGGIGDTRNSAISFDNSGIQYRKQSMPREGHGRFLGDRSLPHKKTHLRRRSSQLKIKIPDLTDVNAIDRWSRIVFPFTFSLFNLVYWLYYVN
T1 sequence (P18507 40-475): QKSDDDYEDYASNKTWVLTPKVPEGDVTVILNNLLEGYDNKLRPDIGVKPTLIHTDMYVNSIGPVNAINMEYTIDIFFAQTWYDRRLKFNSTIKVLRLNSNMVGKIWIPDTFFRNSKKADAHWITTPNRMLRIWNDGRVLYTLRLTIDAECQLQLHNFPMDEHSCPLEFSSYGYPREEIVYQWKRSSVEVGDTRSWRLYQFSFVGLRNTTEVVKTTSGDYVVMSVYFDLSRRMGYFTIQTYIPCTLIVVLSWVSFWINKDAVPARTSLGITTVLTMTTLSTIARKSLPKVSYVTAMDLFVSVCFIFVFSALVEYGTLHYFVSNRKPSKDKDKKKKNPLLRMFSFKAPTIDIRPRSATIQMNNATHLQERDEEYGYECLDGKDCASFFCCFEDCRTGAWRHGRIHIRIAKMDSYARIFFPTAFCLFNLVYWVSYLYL
How it was run: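 Whole-cell QPatch recordings at 20-22° C, −65 mV holding, in dexamethasone-induced (1 μM, 24 h) L(tk−) cells. Compound pre-applied ≥1 min, then co-applied with GABA EC10-20; percentage change in leak-corrected peak current, taken at ≥100× Ki, normalised to DMCM efficacy; 0.1% DMSO final.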

[2] = target: T2, human recombinant GABAAR containing α5β3γ2 subunits (benzodiazepine site) (Homo sapiens, UniProt P18507+P31644); test: In vitro radioligand binding assay (α5-GABAAR Ki); conditions: inhibition of [3H]Ro15-1788 binding, membranes of L(tk−) cells expressing human α5β3γ2; read-out: α5-GABAAR Ki
T2 construct: expressed in transfected cells; host or cells: mouse L(tk−) cells, dexamethasone-inducible vector pMSGneo
T2 sequence (P31644 32-462): as the sequence (P31644 32-462) above
T2 sequence (P28472 26-473 partner): as the sequence (P28472 26-473 partner) above
T2 sequence (P18507 40-475): as the sequence (P18507 40-475) above
How it was run: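 Displacement of 4 nM [^3H]flumazenil from the benzodiazepine site, read by filtration and scintillation, gave IC50, converted to Ki (Cheng-Prusoff, saturation-derived Kd). Receptor: human α5β3γ2 membranes from L(tk^−) cells, 50 μg protein/well; 1 h, 4° C; TP003 1 μM defined nonspecific binding.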

| pKi [2] | α5-GABAAR Relative Efficacy (to DMCM), Qpatch ([1]; Conc 1 μM) | SMILES | further results |
| --- | --- | --- | --- |
| 9.30 |  | COc1nc(-c2cnc(NC3CNC3)nc2)ccc1NC(=O)c1c(-c2ccccc2)noc1C [Example 188, N-[6-[2-(Azetidin-3-ylamino)pyrimidin-5-yl]-2-methoxy-3-pyridyl]-5-methyl-3-phenyl-isoxazole-4-carboxamide] | α5-GABAAR Relative Efficacy (to DMCM), Qpatch ([1]; Conc 0.1 μM): −1.08 |
| 9.30 |  | COc1nc(-c2cnc(NCCO)nc2)ccc1NC(=O)c1c(-c2ccccc2)noc1C [Example 175, N-[6-[2-(2-Hydroxyethylamino)pyrimidin-5-yl]-2-methoxy-3-pyridyl]-5-methyl-3-phenyl-isoxazole-4-carboxamide] | α5-GABAAR Relative Efficacy (to DMCM), Qpatch ([1]; Conc 0.1 μM): −0.89 |
| 8.24 | −0.79 | COc1nc(-n2cnc(C(F)(F)F)c2)ccc1NC(=O)c1c(-c2ccccc2)noc1C [Example 140, N-[2-Methoxy-6-[4-(trifluoromethyl)imidazol-1-yl]-3-pyridyl]-5-methyl-3-phenyl-isoxazole-4-carboxamide] |  |
| 8.17 | −0.70 | COc1nc(-c2ccc(N3CC[C@@H](O)C3)nc2)ccc1NC(=O)c1c(-c2ccccc2)noc1C [Example 99, (R)—N-(6′-(3-Hydroxypyrrolidin-1-yl)-6-methoxy-[2,3′-bipyridin]-5-yl)-5-methyl-3-phenylisoxazole-4-carboxamide] |  |
| 7.72 |  | COc1nc(-c2cccc3c2CNC3=O)ccc1NC(=O)c1c(-c2ccccc2)noc1C [Example 97, N-(2-Methoxy-6-(1-oxoisoindolin-4-yl)pyridin-3-yl)-5-methyl-3-phenylisoxazole-4-carboxamide] | α5-GABAAR Relative Efficacy (to DMCM), Qpatch ([1]; Conc 3 μM): −0.67 |
| 8.47 | −0.58 | COc1nc(-c2cncc(-n3cccn3)c2)ccc1NC(=O)c1c(-c2ccccc2)noc1C [Example 90, N-(6-Methoxy-5′-(1H-pyrazol-1-yl)-[2,3′-bipyridin]-5-yl)-5-methyl-3-phenylisoxazole-4-carboxamide] |  |
| 7.63 |  | COc1nc(-c2cnoc2)ccc1NC(=O)c1c(C)nnn1-c1ccccc1 [Example 124, N-(6-(Isoxazol-4-yl)-2-methoxypyridin-3-yl)-4-methyl-1-phenyl-1H-1,2,3-triazole-5-carboxamide] | α5-GABAAR Relative Efficacy (to DMCM), Qpatch ([1]; Conc 3 μM): −1.40 |
| 7.64 |  | COc1nc(-n2cnc(CN(C)C)c2)ccc1NC(=O)c1c(-c2ccccc2)noc1C [Example 152, N-[6-[4-[(Dimethylamino)methyl]imidazol-1-yl]-2-methoxy-3-pyridyl]-5-methyl-3-phenyl-isoxazole-4-carboxamide] | α5-GABAAR Relative Efficacy (to DMCM), Qpatch ([1]; Conc 3 μM): −0.27 |
| 8.49 | −0.65 | COc1nc(-c2ccncc2N)ccc1NC(=O)c1c(-c2ccccc2)noc1C [Example 86, N-(3′-Amino-6-methoxy-[2,4′-bipyridin]-5-yl)-5-methyl-3-phenylisoxazole-4-carboxamide] |  |
| 7.88 |  | COc1nc(-c2ccc3c(c2)nc(C)n3C)ccc1NC(=O)c1c(-c2ccccc2)noc1C [Example 111, N-(6-(1,2-Dimethyl-1H-benzo[d]imidazol-5-yl)-2-methoxypyridin-3-yl)-5-methyl-3-phenylisoxazole-4-carboxamide] | α5-GABAAR Relative Efficacy (to DMCM), Qpatch ([1]; Conc 3 μM): −0.46 |
| 7.21 |  | COc1nc(-c2cnc(CN(C)C)nc2)ccc1NC(=O)c1c(C)nnn1-c1ccccc1 [Example 161, N-(6-(2-((Dimethylamino)methyl)pyrimidin-5-yl)-2-methoxypyridin-3-yl)-4-methyl-1-phenyl-1H-1,2,3-triazole-5-carboxamide] | α5-GABAAR Relative Efficacy (to DMCM), Qpatch ([1]; Conc 10 μM): −0.71 |
| 8.85 |  | COc1nc(-c2ccn3nc(N)nc3c2)ccc1NC(=O)c1c(-c2ccccc2)nnn1C [Example 174, N-(6-(2-Amino-[1,2,4]triazolo[1,5-a]pyridin-7-yl)-2-methoxypyridin-3-yl)-1-methyl-4-phenyl-1H-1,2,3-5-carboxamide] | α5-GABAAR Relative Efficacy (to DMCM), Qpatch ([1]; Conc 0.3 μM): −0.84 |

Further lines, the molecule ahead of its results:

| SMILES | pKi [2] | α5-GABAAR Relative Efficacy (to DMCM), Qpatch ([1]; Conc 1 μM) | further results |
| --- | --- | --- | --- |
| COc1nc(-c2cn(C)nc2C)ccc1NC(=O)c1c(-c2ccccc2)noc1C [Example 20, N-[6-(1,3-Dimethylpyrazol-4-yl)-2-methoxy-3-pyridyl]-5-methyl-3-phenyl-isoxazole-4-carboxamide] | 7.86 |  | α5-GABAAR Relative Efficacy (to DMCM), Qpatch ([1]; Conc 3 μM): −0.28 |
| COc1nc(-c2c(C)noc2C)ccc1NC(=O)c1c(-c2ccccc2)noc1C [Example 6, N-[6-(3,5-Dimethylisoxazol-4-yl)-2-methoxy-3-pyridyl]-5-methyl-3-phenyl-isoxazole-4-carboxamide] | 7.48 |  | α5-GABAAR Relative Efficacy (to DMCM), Qpatch ([1]; Conc 10 μM): −0.22 |
| COc1cc(-n2ccnc2)ccc1NC(=O)c1c(C)nnn1-c1ccccc1 [Example 5, N-(4-(1H-Imidazol-1-yl)-2-methoxyphenyl)-4-methyl-1-phenyl-1H-1,2,3-triazole-5-carboxamide] | 7.29 | −0.82 |  |
| CCn1nc(-c2nccs2)cc1-c1ccc(NC(=O)c2c(-c3ccccc3)noc2C)c(OC)n1 [Example 80, N-(6-(1-Ethyl-3-(thiazol-2-yl)-1H-pyrazol-5-yl)-2-methoxypyridin-3-yl)-5-methyl-3-phenylisoxazole-4-carboxamide] | 7.71 |  | α5-GABAAR Relative Efficacy (to DMCM), Qpatch ([1]; Conc 3 μM): −0.65 |
| COc1nc(-c2ccc3[nH]nc(N)c3c2)ccc1NC(=O)c1c(-c2ccccc2)noc1C [Example 33, N-[6-(3-Amino-1H-indazol-5-yl)-2-methoxy-3-pyridyl]-5-methyl-3-phenyl-isoxazole-4-carboxamide] | 7.80 |  | α5-GABAAR Relative Efficacy (to DMCM), Qpatch ([1]; Conc 3 μM): −0.50 |
| COc1ccc(-c2cnc(NC(=O)c3c(-c4ccccc4)noc3C)c(OC)n2)cn1 [Example 71, N-[3-Methoxy-5-(6-methoxy-3-pyridyl)pyrazin-2-yl]-5-methyl-3-phenyl-isoxazole-4-carboxamide] | 8.55 |  | α5-GABAAR Relative Efficacy (to DMCM), Qpatch ([1]; Conc 0.3 μM): −0.94 |
| COc1nc(-c2nccnc2N)ccc1NC(=O)c1c(-c2ccccc2)noc1C [Example 54, N-[6-(3-Aminopyrazin-2-yl)-2-methoxy-3-pyridyl]-5-methyl-3-phenyl-isoxazole-4-carboxamide] | 8.13 | −0.55 |  |
| COc1nc(-c2cnc(CN)nc2)ccc1NC(=O)c1c(-c2ccc(F)cc2)nnn1C.Cl [Example 184, N-(6-(2-(Aminomethyl)pyrimidin-5-yl)-2-methoxypyridin-3-yl)-4-(4-fluorophenyl)-1-methyl-1H-1,2,3-triazole-5-carboxamide hydrochloride] | 8.82 |  | α5-GABAAR Relative Efficacy (to DMCM), Qpatch ([1]; Conc 0.3 μM): −0.45 |
| Cc1onc(-c2ccc(F)cc2)c1C(=O)Nc1ccc(-c2cnc(CN)nc2)nc1OC(C)C.Cl [Example 205, N-(6-(2-(Aminomethyl)pyrimidin-5-yl)-2-isopropoxypyridin-3-yl)-3-(4-fluorophenyl)-5-methylisoxazole-4-carboxamide hydrochloride] | 9.40 |  | α5-GABAAR Relative Efficacy (to DMCM), Qpatch ([1]; Conc 0.1 μM): −0.61 |
| COc1ncc(-c2cnc(NC(=O)c3c(-c4ccccc4)noc3C)c(OC)n2)cn1 [Example 72, N-[3-Methoxy-5-(2-methoxypyrimidin-5-yl)pyrazin-2-yl]-5-methyl-3-phenyl-isoxazole-4-carboxamide] | 8.70 |  | α5-GABAAR Relative Efficacy (to DMCM), Qpatch ([1]; Conc 0.3 μM): −1.04 |
| COc1nc(-c2ccn3nc(N)nc3c2)ccc1NC(=O)c1c(-c2ccccc2)noc1C.Cl [Example 61, N-[6-(2-Amino-[1,2,4]triazolo[1,5-a]pyridin-7-yl)-2-methoxy-3-pyridyl]-5-methyl-3-phenyl-isoxazole-4-carboxamide hydrochloride] | 8.85 |  | α5-GABAAR Relative Efficacy (to DMCM), Qpatch ([1]; Conc 0.3 μM): −0.85 |
| COc1nc(-c2ccc3nc(N)nn3c2)ccc1NC(=O)c1c(-c2ccccc2)noc1C [Example 57, N-[6-(2-Amino-[1,2,4]triazolo[1,5-a]pyridin-6-yl)-2-methoxy-3-pyridyl]-5-methyl-3-phenyl-isoxazole-4-carboxamide] | 8.82 |  | α5-GABAAR Relative Efficacy (to DMCM), Qpatch ([1]; Conc 0.3 μM): −0.57 |
| COc1cc(-c2c(C)noc2C)cnc1NC(=O)c1c(-c2ccccc2)noc1C [Example 14, N-[5-(3,5-Dimethylisoxazol-4-yl)-3-methoxy-2-pyridyl]-5-methyl-3-phenyl-isoxazole-4-carboxamide] | 7.30 |  | α5-GABAAR Relative Efficacy (to DMCM), Qpatch ([1]; Conc 10 μM): −0.24 |
| COc1cc(-n2ccnc2)ccc1NC(=O)c1c(-c2ccccc2)noc1C [Example 2, N-(4-Imidazol-1-yl-2-methoxy-phenyl)-5-methyl-3-phenyl-isoxazole-4-carboxamide] | 8.62 | −0.54 |  |
| COc1nc(-c2cc(C)nc(N)c2)ccc1NC(=O)c1c(-c2ccccc2)noc1C [Example 81, N-(2′-Amino-6-methoxy-6′-methyl-[2,4′-bipyridin]-5-yl)-5-methyl-3-phenylisoxazole-4-carboxamide] | 8.10 | −1.26 |  |
| COc1nc(-c2cnc3n2CCNC3)ccc1NC(=O)c1c(-c2ccccc2)noc1C.Cl [Example 138, N-(2-Methoxy-6-(5,6,7,8-tetrahydroimidazo[1,2-a]pyrazin-3-yl)pyridin-3-yl)-5-methyl-3-phenylisoxazole-4-carboxamide hydrochloride] | 8.49 | −0.62 |  |
